Measured values reported in PubChem BioAssay AID256 (DTP/NCI, 2004).
Toxic doses and inconclusive results are not listed. The calls were made as follows: active = survival T/C of 150% or more; inactive = T/C below 125% in these data.

System: CD2F1 mice, L1210 leukemia ip, survival T/C
Test: NCI In Vivo Anticancer Drug Screen. Data for tumor model L1210 Leukemia (intraperitoneal) in CD2F1 (CDF1) mice
Conditions: endpoint: mean survival time, higher = longer survival
In short: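 Compound-dosed mice with transplantable tumor versus matched vehicle controls; endpoint ratio T/C reported.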

[1] = dose: 100.0 mg/kg/injection, schedule: Q01DX009 (ip), vehicle: saline with Tween-80
[2] = dose: 100.0 mg/kg/injection, schedule: Q04DX003 (ip), vehicle: saline with Tween-80
[3] = dose: 200.0 mg/kg/injection, schedule: Q01DX009 (ip), vehicle: saline with Tween-80
[4] = dose: 200.0 mg/kg/injection, schedule: Q04DX003 (ip), vehicle: saline with Tween-80
[5] = dose: 400.0 mg/kg/injection, schedule: Q01DX009 (ip), vehicle: saline with Tween-80
[6] = dose: 400.0 mg/kg/injection, schedule: Q04DX003 (ip), vehicle: saline with Tween-80
[7] = dose: 100.0 mg/kg/injection, schedule: Q01DX009 (ip), vehicle: saline
[8] = dose: 200.0 mg/kg/injection, schedule: Q01DX009 (ip), vehicle: saline
[9] = dose: 400.0 mg/kg/injection, schedule: Q01DX009 (ip), vehicle: saline
[10] = dose: 100.0 mg/kg/injection, schedule: Q01DX009 (ip), vehicle: other
[11] = dose: 100.0 mg/kg/injection, schedule: Q04DX003 (ip), vehicle: Klucel (hydroxypropylcellulose) (HPC)
[12] = dose: 200.0 mg/kg/injection, schedule: Q01DX009 (ip), vehicle: other
[13] = dose: 200.0 mg/kg/injection, schedule: Q04DX003 (ip), vehicle: Klucel (hydroxypropylcellulose) (HPC)
[14] = dose: 400.0 mg/kg/injection, schedule: Q04DX003 (ip), vehicle: Klucel (hydroxypropylcellulose) (HPC)
[15] = dose: 12.5 mg/kg/injection, schedule: Q01DX009 (ip), vehicle: saline with Tween-80
[16] = dose: 25.0 mg/kg/injection, schedule: Q01DX009 (ip), vehicle: saline with Tween-80
[17] = dose: 50.0 mg/kg/injection, schedule: Q01DX009 (ip), vehicle: saline with Tween-80
[18] = dose: 100.0 mg/kg/injection, schedule: Q04DX002 (ip), vehicle: saline with Tween-80
[19] = dose: 200.0 mg/kg/injection, schedule: Q04DX002 (ip), vehicle: saline with Tween-80
[20] = dose: 400.0 mg/kg/injection, schedule: Q04DX002 (ip), vehicle: saline with Tween-80
[21] = dose: 100.0 mg/kg/injection, schedule: Q01DX001 (ip), vehicle: saline with Tween-80
[22] = dose: 200.0 mg/kg/injection, schedule: Q01DX001 (ip), vehicle: saline with Tween-80
[23] = dose: 400.0 mg/kg/injection, schedule: Q01DX001 (ip), vehicle: saline with Tween-80

Measured: T/C

NC(N)=N/N=C/c1ccc(Cl)cc1Cl
inactive: dose: 8.0 mg/kg/injection, schedule: Q01DX Z (ip), vehicle: saline 88 % of control | dose: 16.0 mg/kg/injection, schedule: Q01DX Z (ip), vehicle: saline 96 % of control | dose: 31.0 mg/kg/injection, schedule: Q01DX Z (ip), vehicle: saline 92 % of control | dose: 62.0 mg/kg/injection, schedule: Q01DX Z (ip), vehicle: saline 95 % of control

Cc1cc(O)c(Br)c(C)c1Br
inactive: [1] 111 % of control | [2] 104 % of control | [3] 98 % of control | [4] 97 % of control | [5] 106 % of control | [6] 101 % of control

c1ccc2c(c1)Sc1cnccc1N2CC1CO1 (stereo not drawn)
inactive: [7] 102 % of control | [8] 102 % of control | [9] 104 % of control

ClC1C(Cl)C(Cl)C(Cl)C(Cl)C1Cl (stereo not drawn)
inactive: dose: 10.0 mg/kg/injection, schedule: Q01DX009 (ip), vehicle: saline with Tween-80 104 % of control | dose: 20.0 mg/kg/injection, schedule: Q01DX009 (ip), vehicle: saline with Tween-80 105 % of control | dose: 40.0 mg/kg/injection, schedule: Q01DX009 (ip), vehicle: saline with Tween-80 100 % of control | [10] 102 % of control | [11] 102 % of control | [12] 96 % of control | [13] 107 % of control | [14] 102 % of control

CNS(=O)(=O)c1ccc2c(c1)[nH]c(=S)n2C
inactive: [1] 97 % of control | [2] 96 % of control | [3] 93 % of control | [4] 92 % of control | [5] 93 % of control | [6] 90 % of control

O=C1C=C(NC2CCCCCC2)C(=O)c2nccnc21
inactive: dose: 6.25 mg/kg/injection, schedule: Q01DX009 (ip), vehicle: saline with Tween-80 91 % of control | [15] 95 % of control | [16] 91 % of control | [17] 93 % of control

O=C(Nc1cc(Cl)ccc1Cl)c1ccc(C(=O)Nc2cc(Cl)ccc2Cl)cc1
inactive: [1] 94 % of control | [2] 92 % of control | [3] 95 % of control | [4] 96 % of control | [5] 94 % of control | [6] 88 % of control

C#CCCCCCCCCCCC1(c2ccccc2)OCCO1
inactive: [11] 94 % of control | [13] 97 % of control | [14] 95 % of control

C/C(=N\Nc1ccc2ccccc2n1)c1ccccc1O
inactive: [18] 98 % of control | [19] 98 % of control | [20] 110 % of control

CC(C)OC(=O)Nc1ccccc1F
inactive: [10] 97 % of control | [12] 96 % of control | dose: 400.0 mg/kg/injection, schedule: Q01DX009 (ip), vehicle: other 94 % of control

COC(=O)C(I)C(OC)c1ccccc1 (stereo not drawn)
inactive: [1] 107 % of control | [3] 100 % of control | [5] 97 % of control

C[N+](C)(CC(=O)Nc1ccc(Cl)c(Cl)c1)CC(=O)c1ccc(Cl)cc1
inactive: dose: 25.0 mg/kg/injection, schedule: Q01DX009 (ip), vehicle: saline 87 % of control

FC(F)(F)Cc1ccccc1
inactive: [21] 103 % of control | [22] 108 % of control | [23] 105 % of control

CC1(C)OC2COC(c3cc(C(N)=O)n[nH]3)C2O1 (stereo not drawn)
inactive: [21] 106 % of control | [22] 101 % of control | [23] 105 % of control

c1ccc2[nH]c(CN3CCCCC3)cc2c1
inactive: [15] 106 % of control | [16] 100 % of control | [17] 90 % of control

NNC(=O)C(N)Cc1cnc[nH]1 (stereo not drawn)
inactive: dose: 50.0 mg/kg/injection, schedule: Q04DX002 (ip), vehicle: saline with Tween-80 100 % of control | [18] 100 % of control | [19] 122 % of control | [20] 118 % of control

CC(c1ccccc1)C(OC(=O)c1ccc([N+](=O)[O-])cc1)c1ccccc1 (stereo not drawn)
inactive: [1] 97 % of control | [2] 98 % of control | [3] 94 % of control | [4] 94 % of control | [5] 91 % of control | [6] 98 % of control

Cc1cccc(NC2=NCCO2)c1
inactive: [21] 104 % of control | [22] 103 % of control

CCCCCCCCCCCCCC(=O)N1CCOCC1
inactive: [1] 96 % of control | [2] 97 % of control | [3] 96 % of control | [4] 95 % of control | [5] 100 % of control | [6] 97 % of control

Nc1nc(Nc2ccccc2)c2ncn(C3OC(CO)C(O)C3O)c2n1 (stereo not drawn)
inactive: dose: 6.25 mg/kg/injection, schedule: Q01DX005 (ip), vehicle: distilled water + Tween-80 98 % of control | dose: 12.5 mg/kg/injection, schedule: Q01DX005 (ip), vehicle: distilled water + Tween-80 98 % of control | dose: 25.0 mg/kg/injection, schedule: Q01DX005 (ip), vehicle: distilled water + Tween-80 102 % of control | dose: 50.0 mg/kg/injection, schedule: Q01DX005 (ip), vehicle: distilled water + Tween-80 101 % of control | dose: 100.0 mg/kg/injection, schedule: Q01DX005 (ip), vehicle: distilled water + Tween-80 98 % of control

N#CC1CCCC1=N (stereo not drawn)
inactive: [15] 94 % of control | [16] 97 % of control | dose: 100.0 mg/kg/injection, schedule: Q01DX001 (ip), vehicle: saline 110 % of control | dose: 200.0 mg/kg/injection, schedule: Q01DX001 (ip), vehicle: saline 104 % of control | dose: 400.0 mg/kg/injection, schedule: Q01DX001 (ip), vehicle: saline 111 % of control

NC(Cc1ccc([N+](=O)[O-])cc1)C(=O)O (stereo not drawn)
inactive: [7] 96 % of control | dose: 100.0 mg/kg/injection, schedule: Q04DX003 (ip), vehicle: saline 97 % of control | [8] 98 % of control | dose: 200.0 mg/kg/injection, schedule: Q04DX003 (ip), vehicle: saline 100 % of control | [9] 94 % of control | dose: 400.0 mg/kg/injection, schedule: Q04DX003 (ip), vehicle: saline 103 % of control

NS(=O)(=O)c1cc([N+](=O)[O-])ccc1Cl
inactive: [1] 91 % of control | [3] 98 % of control

CCCCOC(=O)C(N)=O
inactive: dose: 100.0 mg/kg/injection, schedule: Q01DX009 (ip), vehicle: Klucel (hydroxypropylcellulose) (HPC) 94 % of control | [2] 97 % of control | dose: 200.0 mg/kg/injection, schedule: Q01DX009 (ip), vehicle: Klucel (hydroxypropylcellulose) (HPC) 100 % of control | [4] 100 % of control | dose: 400.0 mg/kg/injection, schedule: Q01DX009 (ip), vehicle: Klucel (hydroxypropylcellulose) (HPC) 93 % of control | [6] 102 % of control

Cc1cc(NC(C)CN(C)C)nc(/N=C(\N)Nc2ccc(Cl)c(Cl)c2)n1 (stereo not drawn)
inactive: [2] 96 % of control

CC1(C)C(O)C(C)(C)C1O (stereo not drawn)
inactive: [16] 93 % of control | [17] 98 % of control | [2] 97 % of control

OC1(C#CCC2(O)CCCCC2)CCCCC1
inactive: [21] 91 % of control | [22] 91 % of control | [23] 93 % of control
